Reference: patent US8778966B2, “Quinolinone derivatives as PARP and tank inhibitors” (Janssen Pharmaceutica, NV, priority 2007, dated 2014)

Molecular target: T1, Human PARP-1 enzyme (Homo sapiens, UniProt P09874)
T1 construct: purchased Trevigen
Assay: In vitro Scintillation Proximity Assay (SPA) for PARP-1 inhibitory activity
Format: biochemical
Details: read-out: in vitro SPA assay PARP-1 pIC50 (converted)
Method in brief: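 SPA assay: nicked-DNA-activated PARP-1 (0.1–0.2 μg/ml) ADP-ribosylates biotinylated histones (2 μg/ml) using [3H]-NAD+, 20 min at RT in Tris pH 8/DTT/MgCl2, stopped with 2 mM NAD+. Blank-subtracted cpm expressed as % control; IC50 by linear interpolation, reported as pIC50 (10−5 to 3×10−9 M tested).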

T1 sequence (P09874 whole entry): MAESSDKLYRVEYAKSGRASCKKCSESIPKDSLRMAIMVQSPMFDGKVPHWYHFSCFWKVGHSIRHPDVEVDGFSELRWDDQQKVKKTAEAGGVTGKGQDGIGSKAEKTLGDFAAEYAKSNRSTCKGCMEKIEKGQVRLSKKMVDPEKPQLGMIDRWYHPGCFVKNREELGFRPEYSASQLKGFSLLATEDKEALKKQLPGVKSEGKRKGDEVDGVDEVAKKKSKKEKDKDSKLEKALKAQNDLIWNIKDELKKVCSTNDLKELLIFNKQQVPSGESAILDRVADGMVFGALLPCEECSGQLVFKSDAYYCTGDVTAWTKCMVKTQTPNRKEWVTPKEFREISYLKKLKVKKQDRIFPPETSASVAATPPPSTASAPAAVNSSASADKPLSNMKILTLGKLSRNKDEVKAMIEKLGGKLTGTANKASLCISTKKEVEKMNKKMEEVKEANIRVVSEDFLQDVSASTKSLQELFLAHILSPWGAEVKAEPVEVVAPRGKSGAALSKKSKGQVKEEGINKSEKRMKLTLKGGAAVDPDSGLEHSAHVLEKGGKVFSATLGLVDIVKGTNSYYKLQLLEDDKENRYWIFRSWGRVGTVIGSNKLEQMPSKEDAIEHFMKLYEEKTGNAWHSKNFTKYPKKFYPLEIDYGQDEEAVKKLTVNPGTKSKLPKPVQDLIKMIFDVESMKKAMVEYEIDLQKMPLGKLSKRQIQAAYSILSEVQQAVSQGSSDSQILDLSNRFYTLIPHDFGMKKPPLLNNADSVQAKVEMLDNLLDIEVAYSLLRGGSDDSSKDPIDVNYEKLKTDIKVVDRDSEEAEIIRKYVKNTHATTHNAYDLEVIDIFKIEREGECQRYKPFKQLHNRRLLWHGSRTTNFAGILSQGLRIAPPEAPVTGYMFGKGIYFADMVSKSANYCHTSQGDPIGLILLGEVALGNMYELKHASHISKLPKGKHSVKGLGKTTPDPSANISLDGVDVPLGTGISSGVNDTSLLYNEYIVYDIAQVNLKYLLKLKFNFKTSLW

| SMILES | IC50 [nM] |
| --- | --- |
| CCc1cc2ccc(C(C)(C#N)Cc3cccc(C(=O)O)c3)cc2[nH]c1=O (stereo not shown) [Compound 10] | 79.4 |
| CCc1cc2ccc(C(C)(C#N)Cc3ccc(F)cc3)cc2[nH]c1=O (stereo not shown) [Compound 115] | 316 |
| CCc1cc2ccc(C(C)(C#N)CCOc3ccccc3Br)cc2[nH]c1=O (stereo not shown) [Compound 153] | 316 |
| CCc1cc2ccc(C(C#N)(CCOc3ccccc3)C3CC3)cc2[nH]c1=O (stereo not shown) [Compound 166] | 501 |
| CCc1cc2ccc(C(C#N)(CC)C3CCc4ccc(F)cc43)cc2[nH]c1=O (stereo not shown) [Compound 391] | 200 |
| CCc1cc2ccc(C(C)(C#N)Cc3cccc(NC(=O)N4CCOCC4)c3)cc2[nH]c1=O (stereo not shown) [Compound 16] | 158 |
| CCc1cc2ccc([C@@](C)(C#N)C[C@@H]3CCc4cc(C)ccc4O3)cc2[nH]c1=O [Compound 252] | 200 |
| CCc1cc2ccc(C(C)(C#N)Cc3cc(Br)cc(Br)c3)cc2[nH]c1=O (stereo not shown) [Compound 133] | 794 |
| CCc1cc2ccc(C(C)(C#N)Cc3cc(C(F)(F)F)cc(C(F)(F)F)c3)cc2[nH]c1=O (stereo not shown) [Compound 131] | 1580 |
| CCc1cc2ccc(C(C)(C#N)CCOc3ccc(C)cc3)cc2[nH]c1=O (stereo not shown) [Compound 149] | 398 |
| CCc1cc2ccc(C(C)(C#N)CC#Cc3cccc(F)c3)cc2[nH]c1=O (stereo not shown) [Compound 184] | 100 |
| CCc1cc2ccc(C(C)(C#N)CCOc3ccc(C(C)(C)C)cc3)cc2[nH]c1=O (stereo not shown) [Compound 167] | 1580 |
| CCc1cc2ccc([C@](C)(C#N)C[C@@H]3CCc4cc(C)ccc4O3)cc2[nH]c1=O [Compound 251] | 200 |
| CCc1cc2ccc(C(C)(C#N)Cc3ccc(C#N)cc3)cc2[nH]c1=O (stereo not shown) [Compound 111] | 251 |
| Cc1cc2ccc([C@@](C)(C#N)[C@H]3CCc4cc(C#N)ccc43)cc2[nH]c1=O [Compound 389] | 200 |
| CCc1cc2ccc(C(C)(C#N)CCOc3ccc(Cl)cc3)cc2[nH]c1=O (stereo not shown) [Compound 146] | 398 |
| CCc1cc2ccc(C(C)(C#N)Cc3cccc(C(=O)NC)c3)cc2[nH]c1=O (stereo not shown) [Compound 13] | 398 |
| CCc1cc2ccc(C(C#N)(CC)CCOc3ccc(C#N)cc3)cc2[nH]c1=O (stereo not shown) [Compound 271] | 100 |
| CCc1cc2ccc([C@@](C)(C#N)CCOc3ccccc3)cc2[nH]c1=O (single isomer, unassigned) [Compound 150] | 501 |
| CCc1cc2ccc(C(C)(C#N)CCOc3ccc4oc(C)c(C)c4c3)cc2[nH]c1=O (stereo not shown) [Compound 162] | 1000 |
| CCc1cc2ccc(C(C)(C#N)CCOc3ccccc3C(C)=O)cc2[nH]c1=O (stereo not shown) [Compound 159] | 251 |
| CCc1cc2ccc(C(C)(C#N)CCOc3cccc4c3OCCO4)cc2[nH]c1=O (stereo not shown) [Compound 163] | 1260 |
| CCc1cc2ccc(C(C)(C#N)Cc3ccc(C(F)(F)F)cc3)cc2[nH]c1=O (stereo not shown) [Compound 108] | 1260 |
| Cc1cc2ccc([C@@](C)(C#N)[C@@H]3CCc4cc(C#N)ccc43)cc2[nH]c1=O [Compound 245] | 200 |
| CCc1cc2ccc(C(C)(C#N)Cc3cccc(NS(C)(=O)=O)c3)cc2[nH]c1=O (stereo not shown) [Compound 14] | 398 |
| CCc1cc2ccc(C(C)(C#N)Cc3ccc(C)cc3)cc2[nH]c1=O (stereo not shown) [Compound 117] | 398 |
| CCc1cc2ccc(C(C)(C#N)CCOc3ccc(SC)cc3)cc2[nH]c1=O (stereo not shown) [Compound 155] | 501 |
| CCc1cc2ccc(C(C)(C#N)CCOc3ccccc3Cl)cc2[nH]c1=O (stereo not shown) [Compound 152] | 398 |
